Consider seven compounds from publication PMC7918612, “Novel Inhibitors of Nicotinamide-N-Methyltransferase for the Treatment of Metabolic Disorders” (Molecules, 2021).

Changes are numbered by the printed parent chain. Like-named read-outs stand apart in the source and are kept apart here.

Data set [1] addresses T1, human NNMT (Homo sapiens, UniProt P40261).
T1 sequence (P40261 1-264): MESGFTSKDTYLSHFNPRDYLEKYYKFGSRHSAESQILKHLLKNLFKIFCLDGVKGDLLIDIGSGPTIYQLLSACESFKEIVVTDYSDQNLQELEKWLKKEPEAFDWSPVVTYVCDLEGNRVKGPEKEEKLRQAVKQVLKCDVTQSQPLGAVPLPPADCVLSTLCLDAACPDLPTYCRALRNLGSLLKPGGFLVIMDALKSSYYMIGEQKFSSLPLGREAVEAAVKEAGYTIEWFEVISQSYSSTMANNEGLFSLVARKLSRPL
In words: Fluorescence-based NNMT enzymatic assay (human enzyme). The following applies: for IC50: read-out: hNNMT IC50. The format is biochemical. On the procedure: (§1) Experimental Procedures S2: Fluorescence-based NNMT enzymatic assay
(§2) NNMT activity was measured by fluorescence based assay. The product MNA formed in the reaction reacts with acetophenone in the presence of KOH and formic acid and forms a fluorescent product 2, 7- naphthyridine. The fluorescence intensity measured with excitation at 375nm and emission at 430nm. Inhibitors were screened using human, mouse and monkey NNMT enzymes. Different concentrations of inhibitors were pre-incubated along with 5ng/well of human NNMT enzyme and 3.42ng/well of mouse NNMT enzyme for 30 minutes at room temperature. Reaction was initiated by addition of SAM and nicotinamide mixture (7µM, 20µM, 8µM SAM and 6µM, 20µM, 9µM nicotinamide for human, mouse and monkey NNMT assays respectively) and incubated for 60 minutes at 37°C. The final assay reaction mixture contained a buffer of 100mM Tris Hcl pH 7.5, 0.04% BSA, 2mM Dithiothreitol and 1% DMSO. The reaction was terminated by addition of Ethanol: Acetophenone mix (75% ethanol: 25% Acetophenone) and 5M potassium Hydroxide prepared with 50% Ethanol. The reaction was incubated for 15 minutes followed by addition of 100µl of 60% formic acid and further incubation for 60 minutes at room temperature. A fluorescent product 2, 7- naphthyridine was measured in a Tecan reader with excitation at 375nm and emission at 430nm. The IC50 values were determined by fitting the inhibition curves (percent inhibition versus inhibitor concentration) using a four parametric sigmoidal dose response in graph pad prism. […]

The next data set addresses T2, mouse NNMT (Mus musculus, UniProt O55239).
T2 sequence (O55239 1-264): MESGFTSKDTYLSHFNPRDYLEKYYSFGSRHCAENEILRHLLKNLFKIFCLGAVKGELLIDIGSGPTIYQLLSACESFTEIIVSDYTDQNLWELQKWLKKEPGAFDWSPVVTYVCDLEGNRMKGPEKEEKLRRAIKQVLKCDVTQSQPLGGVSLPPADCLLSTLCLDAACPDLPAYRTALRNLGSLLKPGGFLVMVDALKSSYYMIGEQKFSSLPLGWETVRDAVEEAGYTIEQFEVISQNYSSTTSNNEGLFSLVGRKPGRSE
In words: Fluorescence-based NNMT enzymatic assay (mouse enzyme). The format is biochemical. As to conditions: read-out: mNNMT IC50. On the procedure:
as §1, §2

In data set [2] the target is T3, human NNMT (Homo sapiens, UniProt P40261, E101A/E103A/K100A).
T3 construct: His-tag; thrombin protease site; made in house
T3 sequence (P40261 1-264 K100A/E101A/E103A): T1 sequence (P40261 1-264) with K100A, E101A, E103A
Nature of the data set: Thermal shift (DSF) measurement of NNMT stabilisation. It counts as binding. The following applies: together with cofactor (reaction product) SAH.

The target of a further data set is CYP3A4 (Homo sapiens, UniProt P08684). In words: CYP3A4 inhibition. The format is in vitro ADME.
Sequence of CYP3A4 (P08684 whole entry, species assumed): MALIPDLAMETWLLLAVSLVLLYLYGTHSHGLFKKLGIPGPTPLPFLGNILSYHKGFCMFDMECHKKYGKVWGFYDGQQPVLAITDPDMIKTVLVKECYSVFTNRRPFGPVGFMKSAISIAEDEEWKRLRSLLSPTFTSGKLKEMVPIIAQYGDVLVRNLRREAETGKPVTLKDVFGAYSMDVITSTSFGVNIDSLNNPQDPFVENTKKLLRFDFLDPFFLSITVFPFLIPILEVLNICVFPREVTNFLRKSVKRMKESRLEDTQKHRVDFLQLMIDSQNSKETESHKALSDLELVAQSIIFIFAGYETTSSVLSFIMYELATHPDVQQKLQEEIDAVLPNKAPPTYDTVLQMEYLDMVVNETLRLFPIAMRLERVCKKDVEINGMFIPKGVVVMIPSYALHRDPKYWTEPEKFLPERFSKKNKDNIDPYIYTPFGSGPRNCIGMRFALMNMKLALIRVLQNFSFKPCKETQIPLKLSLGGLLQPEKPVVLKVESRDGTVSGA
Data set [3] is described as follows: Metabolic stability in liver microsomes (species not specified). The format is in vitro ADME. How it is done: (§3) Experimental Procedures S3: Metabolic stability in human and mouse liver microsomes
(§4) These profiling studies were carried out as described in Mullangi R. et. al. Preclinical assessment of
(§5) ulixertinib, a novel ERK1/2 inhibitor, ADMET & DMPK, 2017, 212-223;
(In general: Liver microsomes are vesicles of endoplasmic reticulum, rich in cytochrome P450 enzymes.)

Data set [4] can be described thus: Metabolic stability in mouse liver microsomes. The format is in vitro ADME. As to conditions: for remaining at 1 h: mouse liver microsomes, read-out: MLM % Remaining at 1 h. On the procedure:
as §3, §4, §5

Data set [5] in a line: Metabolic stability in human liver microsomes. The format is in vitro ADME. More on the design: HLM: unit not given beside the values. The following applies: for remaining at 1 h: human liver microsomes, read-out: HLM % Remaining at 1 h. How it is done:
as §3, §4, §5

Data set [6] is described as follows: Metabolic stability in rat liver microsomes. It counts as in vitro ADME. As to conditions: read-out: RLM % Remaining at 1 h.
In another data set the test system is NNMT. The following applies: substrate of NNMT; cited from earlier work.

Broadly, the IC50 is the point on the concentration scale where inhibition reaches its midpoint. Take `N=c1sc2cccc3c2n1CCC3` [Compound 2]: the mode of inhibition entry at human NNMT [1] (competition with substrates nicotinamide / SAM) is “competitive inhibitors either of nicotinamide alone”. In addition, the results for the half-maximal inhibitory concentration (IC50) on human NNMT [1] and on mouse NNMT were 1300 nM and 2300 nM, respectively. Also, the “stabilization in DSF experiments, in words” value at human NNMT [2] was “strong additive stabilization”.
As to `CN1Cc2cccc3c2N(CCC3)C1=N` [Compound 4], the CYP3A4 inhibition liabilities entry at CYP3A4 is given as “no CYP3A4 inhibition liabilities were detected”. Moreover, the “metabolic stability, in words” value in data set [3] is recorded as “in an acceptable range”. Further, at human NNMT [1], the “hNNMT potency, in words” value is on record as “two-digit nano-molar potency” and the IC50 stood at 70 nM. Further, the concentration for half-maximal inhibition (IC50) on mouse NNMT came to 100 nM.
The term fraction remaining denotes what is left of the initial amount, in per cent. Consider `Cc1nn(CC(C)(O)C(=O)N2CCN(c3cccc4[nH]c(=O)ccc34)CC2)cc1-c1cccc(F)c1` (centres unmarked) [Compound 21], for which the share remaining at 1 h in [4] was less than 5%; in data set [5], 20%; in data set [6], less than 5%. Further, the “metabolic stability, in words” value in [3] was “did not improve”. On human NNMT [1], the “hNNMT potency, in words” value is reported as “reasonable potency”. The concentration for half-maximal inhibition (IC50) at human NNMT [1] was found to be 250 nM; on mouse NNMT it was 1640 nM.
In the case of `Cc1nn(CC(C)(O)C(=O)N2CCN(c3cccc4c3ccc(=O)n4C)CC2)cc1-c1cccc(F)c1` (centres unmarked) [Compound 23], the share remaining at 1 h in data set [4] and in [5] was less than 5% in each case. In addition, the “metabolic stability, in words” value in data set [3] is listed as “did not improve”. Further, the half-inhibitory concentration (IC50) on human NNMT [1] was determined as 150 nM; at mouse NNMT it was 1000 nM.
In data set [4] (Table 3, mouse liver microsome data, head HLM/MLM without unit), `Cc1nn(CC(C)(O)C(=O)N2CCC(O)(c3cccc4cnccc34)CC2)cc1-c1cccc(F)c1` (centres unmarked) [Compound 31] displayed an MLM of less than 5. The “metabolic stability, in words” value in data set [3] is “insufficient for further profiling”. Moreover, the HLM in data set [5] (Table 3, human liver microsome data, head HLM/MLM without unit) amounted to 23. Besides, the IC50 came out at 110 nM at human NNMT [1] (Table 3) and 560 nM at mouse NNMT (Table 3). For the same compound, on human NNMT [1] (comparator not stated), the increase in potency entry was “three-fold increase”.
As a reminder, the Km is the concentration of substrate that gives half-maximal velocity. Consider `C[S+](CC[C@H](N)C(=O)[O-])C[C@H]1O[C@@H](n2cnc3c(N)ncnc32)[C@H](O)[C@@H]1O` (some centres unmarked) [SAM, S-adenosyl-methionine], for which the Michaelis-Menten constant (Km) in the data set with NNMT is 1.8 µM.
With `NC(=O)c1cccnc1` [nicotinamide], the Km in the data set on NNMT was 400 µM.
